# Measurements as given in ChEMBL document CHEMBL1201862, “PubChem BioAssay data set” (2004).
#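 These data come from cells grown in 96-well plates and exposed to compound for 48 hours at five concentrations. GI50 marks 50% less growth.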 The source made the active and inactive calls. No stated cut-off is given here; in the data, active = GI50 up to about 1.1 µM and inactive = higher.
# Experiments:
# Test in all cases: NCI tumour cell line growth inhibition, 48 h
# [1] = system: 786-0
# [2] = system: A498
# [3] = system: A549
# [4] = system: ACHN
# [5] = system: BT-549
# [6] = system: CAKI-1
# [7] = system: COLO 205
# [8] = system: DU-145
# [9] = system: HCC 2998
# [10] = system: HCT-116
# [11] = system: HCT-15
# [12] = system: HL-60
# [13] = system: HOP-62
# [14] = system: HOP-92
# [15] = system: HT-29
# [16] = system: Hs-578T
# [17] = system: IGROV-1
# [18] = system: KM12
# [19] = system: LOX IMVI
# [20] = system: M14
# [21] = system: MCF7
# [22] = system: MDA-MB-231
# [23] = system: MDA-MB-435
# [24] = system: MDA-N
# [25] = system: MOLT-4
# [26] = system: Malme-3M
# [27] = system: NCI-H226
# [28] = system: NCI-H23
# [29] = system: NCI-H460
# [30] = system: NCI-H522
# [31] = system: NCI/ADR-RES
# [32] = system: OVCAR-3
# [33] = system: OVCAR-4
# [34] = system: OVCAR-5
# [35] = system: OVCAR-8
# [36] = system: PC-3
# [37] = system: RPMI-8226
# [38] = system: RXF 393
# [39] = system: SF-268
# [40] = system: SF-295
# [41] = system: SF-539
# [42] = system: SK-MEL-28
# [43] = system: SK-MEL-2
# [44] = system: SK-MEL-5
# [45] = system: SK-OV-3
# [46] = system: SN12C
# [47] = system: SNB-19
# [48] = system: SNB-75
# [49] = system: SR
# [50] = system: SW-620
# [51] = system: T47D
# [52] = system: TK-10
# [53] = system: U-251
# [54] = system: UACC-257
# [55] = system: UACC-62
# [56] = system: UO-31
# [57] = system: CCRF-CEM
# [58] = system: EKVX
# [59] = system: K562
structure (smiles),measurement,setting,value
Fc1ccc2c(c1)nc1n2C(c2c(Cl)cccc2Cl)SC1 (centres undefined),GI50,[1],16 µM (inactive)
same,GI50,[2],20.9 µM (inactive)
same,GI50,[3],14.9 µM (inactive)
same,GI50,[4],16.9 µM (inactive)
same,GI50,[5],16.7 µM (inactive)
same,GI50,[6],12.3 µM (inactive)
same,GI50,[7],16.7 µM (inactive)
same,GI50,[8],16.4 µM (inactive)
same,GI50,[9],15.7 µM (inactive)
same,GI50,[10],6.41 µM (inactive)
same,GI50,[11],11.7 µM
same,GI50,[12],12.3 µM (inactive)
same,GI50,[13],14.4 µM (inactive)
same,GI50,[14],6.87 µM (inactive)
same,GI50,[15],16 µM (inactive)
same,GI50,[16],18.3 µM (inactive)
same,GI50,[17],14.1 µM (inactive)
same,GI50,[18],12 µM (inactive)
same,GI50,[19],15 µM (inactive)
same,GI50,[20],16.4 µM (inactive)
same,GI50,[21],15.1 µM (inactive)
same,GI50,[22],15.3 µM (inactive)
same,GI50,[23],11.4 µM (inactive)
same,GI50,[24],12.1 µM (inactive)
same,GI50,[25],8.02 µM (inactive)
same,GI50,[26],13 µM (inactive)
same,GI50,[27],17.3 µM (inactive)
same,GI50,[28],13.1 µM (inactive)
same,GI50,[29],8.17 µM (inactive)
same,GI50,[30],14.7 µM (inactive)
same,GI50,[31],13.4 µM (inactive)
same,GI50,[32],12.9 µM (inactive)
same,GI50,[33],15 µM (inactive)
same,GI50,[34],15.5 µM (inactive)
same,GI50,[35],15.6 µM (inactive)
same,GI50,[36],14.7 µM (inactive)
same,GI50,[37],13.4 µM (inactive)
same,GI50,[38],17.3 µM (inactive)
same,GI50,[39],15.8 µM (inactive)
same,GI50,[40],13.7 µM (inactive)
same,GI50,[41],18.1 µM (inactive)
same,GI50,[42],10.8 µM (inactive)
same,GI50,[43],15 µM (inactive)
same,GI50,[44],8.71 µM (inactive)
same,GI50,[45],14.8 µM (inactive)
same,GI50,[46],17.3 µM (inactive)
same,GI50,[47],14.1 µM (inactive)
same,GI50,[48],13 µM (inactive)
same,GI50,[49],3.94 µM (inactive)
same,GI50,[50],13.2 µM (inactive)
same,GI50,[51],14.2 µM (inactive)
same,GI50,[52],17.5 µM (inactive)
same,GI50,[53],13.1 µM (inactive)
same,GI50,[54],13.5 µM (inactive)
same,GI50,[55],11.8 µM (inactive)
same,GI50,[56],15.4 µM (inactive)
CC(C)OC(=O)c1ccc(NCc2cc(O)ccc2O)cc1Cl,GI50,[1],2.09 µM (inactive)
same,GI50,[2],11 µM (inactive)
same,GI50,[3],12 µM (inactive)
same,GI50,[4],1.78 µM (inactive)
same,GI50,[5],0.327 µM (active)
same,GI50,[6],0.861 µM (active)
same,GI50,[57],0.258 µM (active)
same,GI50,[7],2.3 µM (inactive)
same,GI50,[8],9.08 µM (inactive)
same,GI50,[58],4.92 µM (inactive)
same,GI50,[9],3.59 µM (inactive)
same,GI50,[10],8.87 µM (inactive)
same,GI50,[11],0.798 µM
same,GI50,[12],0.364 µM (active)
same,GI50,[13],18.9 µM (inactive)
same,GI50,[14],1.51 µM (inactive)
same,GI50,[15],9.57 µM (inactive)
same,GI50,[16],23.7 µM (inactive)
same,GI50,[17],2.31 µM (inactive)
same,GI50,[59],0.501 µM (active)
same,GI50,[18],3.64 µM (inactive)
same,GI50,[19],3.27 µM (inactive)
same,GI50,[20],7.13 µM (inactive)
same,GI50,[21],3.47 µM (inactive)
same,GI50,[22],4.18 µM (inactive)
same,GI50,[23],2.15 µM (inactive)
same,GI50,[24],3.18 µM (inactive)
same,GI50,[25],0.695 µM (active)
same,GI50,[27],8.22 µM (inactive)
same,GI50,[28],4.39 µM (inactive)
same,GI50,[29],6.08 µM (inactive)
same,GI50,[30],0.206 µM (active)
same,GI50,[31],2.78 µM (inactive)
same,GI50,[32],2.56 µM (inactive)
same,GI50,[33],4.89 µM (inactive)
same,GI50,[34],8.43 µM (inactive)
same,GI50,[35],2.77 µM (inactive)
same,GI50,[36],2.57 µM (inactive)
same,GI50,[37],0.202 µM (active)
same,GI50,[38],2.61 µM (inactive)
same,GI50,[39],13.1 µM (inactive)
same,GI50,[40],12.2 µM (inactive)
same,GI50,[41],1.75 µM (inactive)
same,GI50,[42],4.28 µM (inactive)
same,GI50,[43],15.1 µM (inactive)
same,GI50,[44],2.73 µM (inactive)
same,GI50,[45],7.21 µM (inactive)
same,GI50,[46],4 µM (inactive)
same,GI50,[47],2.64 µM (inactive)
same,GI50,[48],6.73 µM (inactive)
same,GI50,[49],0.695 µM (active)
same,GI50,[50],2.72 µM (inactive)
same,GI50,[51],1.56 µM (inactive)
same,GI50,[52],6.98 µM (inactive)
same,GI50,[53],3.95 µM (inactive)
same,GI50,[54],11.4 µM (inactive)
same,GI50,[55],5.26 µM (inactive)
same,GI50,[56],0.993 µM (active)
